Measured values reported in patent US7557215B2, “Anthraquinone compounds as anti cancer compounds” (Somanta Limited, priority 2003, dated 2009).
Where two headings read alike, the source gives them in different places.

Tests used:
2780AD = test: Inhibition of cell growth, adriamycin (doxorubicin) resistant 2780AD cell line; assay type: cell-based, human; settings: for IC50: read-out: Inhibition of cell growth 2780AD nM (IC50)
A2780/cp70 = test: Inhibition of cell growth, cisplatin resistant A2780/cp70 cell line; assay type: cell-based, human; settings: for RF against the cisplatin resistant cells: text b280, b283
A2780 [1] = test: Inhibition of cell growth, A2780 wild type ovarian carcinoma cell line
[2] = tested on: human ovarian tumour xenograft (A2780); test: Tumour doubling time, human ovarian tumour xenograft A2780 in mice; assay type: in vivo
From the text: (§1) Compound HAQ71, with the lowest RF (0.2) of the panel of compounds tested against the cisplatin resistant cells and its chloropropyl-substituted analogue, was selected for in vivo investigation in mice using tumour A2780 and A2780/cp70 cells grown as xenografts in mice. Significant anticancer activity in vivo of HAQ71 and CAQ75 was shown; both compounds exerting similar tumour growth delay in human xenografted wild-type and acquired cisplatin resistant tumours (A2780/cp70). The latter is very refractory to cisplatin and other covalent binding agents and has been characterised with elevated levels of glutathione, alterations in drug uptake/efflux and DNA repair mechanisms including mismatch repair deficiency.

[3] = tested on: cisplatin resistant variant (A2780/cp70) xenograft; test: Tumour doubling time, cisplatin resistant variant xenograft A2780/cp70 in mice; assay type: in vivo
From the text: as §1

A2780 [4] = tested on: A2780
[5] = read-out: Inhibition of cell growth (IC50, nM) A2780, A2780, Table 1
[6] = Homo sapiens, A2780/CP70, read-out: Inhibition of cell growth A2780/cp70 nM (IC50)
[7] = Homo sapiens, A2780, read-out: Inhibition of cell growth A2780 nM (IC50)

**Q.** For CN(C)CCNc1ccc(NCCN2CCCCC2)c2c1C(=O)c1c(O)ccc(O)c1C2=O [HAQ148, 1-{[(2-Dimethylamino)ethyl]amino}-4-{[2-(piperidin-1-yl)ethyl]amino}-5,8-dihydroxyanthracene-9,10-dione, reference compound], which IC50 (2780AD; 2780AD adriamycin resistant) is on record?
**A.** > 1000 nM

**Q.** What about the IC50 (A2780/cp70; A2780/cp70 cisplatin resistant, read-out: Inhibition of cell growth A2780/cp70 nM (IC50)) of the same compound?
**A.** > 1 µM

**Q.** What about the IC50 (A2780 [1]; [5]) of the same compound?
**A.** > 1000 nM

**Q.** And the IC50 (A2780 [1]; read-out: Inhibition of cell growth A2780 nM (IC50), A2780 wild type, Table 2)?
**A.** > 1000 nM

**Q.** For O=C1c2c(O)ccc(O)c2C(=O)c2c(NCCN3CCCC3CCl)ccc(NCCN3CCCC3CCl)c21 (centres unmarked) [CAQ177M, 1,4-Bis-{[2-(2-chloromethylpyrrolidin-1-yl)ethyl]amino}-5,8-dihydroxyanthracene-9,10-dione], which “RF 2780AD (IC50 in resistant cell line/IC50 in parent cell line)” value (2780AD; 2780AD vs A2780) is on record?
**A.** 1.8

**Q.** What about the IC50 (2780AD; Homo sapiens, 2780AD) of the same compound?
**A.** 782 nM

**Q.** And the “RF A2780/cp70 (IC50 in resistant cell line/IC50 in parent cell line)” value (A2780/cp70; A2780/cp70 vs A2780)?
**A.** 1

**Q.** And the IC50 (A2780/cp70; [6])?
**A.** 0.442 µM

**Q.** And the IC50 (A2780 [1]; [7])?
**A.** 428 nM

**Q.** With O=C1c2ccccc2C(=O)c2c(NCCN3CCCC3CO)cccc21 (centres unmarked) [HAQ163, 1-{[2-(2-Hydroxymethylpyrrolidin-1-yl)ethyl]amino}-anthracene-9,10-dione] as the compound, how does the IC50 (2780AD; Homo sapiens, 2780AD adriamycin resistant) read?
**A.** > 1000 nM

**Q.** What about the IC50 (A2780/cp70; Homo sapiens, A2780/cp70 cisplatin resistant, read-out: Inhibition of cell growth A2780/cp70 nM (IC50)) of the same compound?
**A.** > 1 µM

**Q.** What about the melting point of the same compound?
**A.** 113 to 115 °C

**Q.** And the IC50 (A2780 [1]; read-out: Inhibition of cell growth A2780 nM (IC50))?
**A.** > 1000 nM

**Q.** Which melting point does the source give for O=C1c2ccccc2C(=O)c2c(NCCN3CCCC(CO)C3)ccc(NCCN3CCCC(CO)C3)c21 (centres unmarked) [HAQ38, 1,4-Bis-{[2-(3-hydroxymethylpiperidine-1-yl)ethyl]amino}-anthracene-9,10-dione] here?
**A.** 112 to 114 °C

**Q.** With O=C1c2c(O)ccc(O)c2C(=O)c2c(NCCN3CCC(O)CC3)ccc(NCCN3CCC(O)CC3)c21 [HAQ116, 1,4-Bis-{[2-(4-hydroxypiperidin-1-yl)ethyl]amino}-5,8-dihydroxy-anthracene-9,10-dione] as the compound, how does the melting point read?
**A.** 241 to 244 °C

**Q.** Which “RF against the cisplatin resistant cells” value (A2780/cp70) does the source give for CN(C)CCNc1ccc(NCCN2CCCCC2CCl)c2c1C(=O)c1c(O)ccc(O)c1C2=O (centres unmarked) [CAQ75, 1-{[2-(2-Chloromethylpiperidin-1-yl)ethyl]amino}-4-{[(2-dimethylamino)ethyl]amino}-5,8-dihydroxyanthracene-9,10-dione] here?
**A.** 0.4

**Q.** And the “doubling time (days) of tumour xenograft” value ([2]; 16 mg/kg i.p.)?
**A.** 5.83 ± 0.40 days

**Q.** What about the “tumour doubling time, percent” value ([2]; 16 mg/kg i.p.) of the same compound?
**A.** 198%

**Q.** What about the “doubling time (days) of tumour xenograft” value ([3]; 16 mg/kg i.p.) of the same compound?
**A.** 4.18 ± 0.27 days

**Q.** What about the “tumour growth delay (%)” value ([3]; 16 mg/kg i.p.) of the same compound?
**A.** 166%

**Q.** And the “fold decrease in cytotoxicity on substitution of OH with Cl (HAQ71 vs CAQ75)” value (A2780 [1]; CAQ75 compared with HAQ71)?
**A.** > 10 fold

**Q.** Which melting point does the source give for O=C1c2c(O)ccc(O)c2C(=O)c2c(NCCN3CCCC(CO)C3)ccc(NCCN3CCCC(CO)C3)c21 (centres unmarked) [HAQ70, 1,4-Bis-{[2-(3-hydroxymethylpiperidine-1-yl)ethyl]amino}-5,8-dihydroxyanthracene-9,10-dione] here?
**A.** 180 to 183 °C

**Q.** Which results are given for O=C1c2c(O)ccc(O)c2C(=O)c2c(NCCN3CCCC(CCl)C3)ccc(NCCN3CCCC(CCl)C3)c21 (centres unmarked) [CAQ74, 1,4-Bis-{[2-(3-chloromethylpiperidin-1-yl)ethyl]amino}-5,8-dihydroxyanthracene-9,10-dione]?
**A.** IC50 (2780AD; Homo sapiens, 2780AD): > 1000 nM; IC50 (A2780/cp70; [6]): > 1 µM; IC50 (A2780 [1]; [7]): > 1000 nM

**Q.** With C[N+](C)([O-])CCNc1ccc(NCC[N+](C)(C)[O-])c2c1C(=O)c1c(O)ccc(O)c1C2=O [AQ4N] as the compound, how does the “cytotoxicity ratio (CR=IC50 of alkylaminoanthraquinone-di-N-oxide/IC50 alkylaminoanthraquinone)” value (A2780 [4]) read?
**A.** 17,000

**Q.** And the IC50 (A2780 [1]; read-out: Growth Inhibition (IC50) A2780, A2780, Table 4)?
**A.** > 100000 nM

**Q.** Which melting point does the source give for O=C1c2c(O)ccc(O)c2C(=O)c2c(NCCN3CCCCC3)ccc(NCCN3CCCCC3)c21 [HAQ145, 1,4-Bis-{[2-(piperidin-1-yl)ethyl]amino}-5,8-dihydroxy-anthracene-9,10-dione] here?
**A.** 219 to 221 °C

**Q.** Which melting point does the source give for O=C1c2c(O)ccc(O)c2C(=O)c2c(NCCN3CCCC3CO)ccc(NCCN3CCCC3CO)c21 (centres unmarked) [HAQ125, 1,4-Bis-{[2-(2-hydroxymethylpyrrolidin-1-yl)ethyl]amino}-5,8-dihydroxy-anthracene-9,10-dione] here?
**A.** 202 to 204 °C

**Q.** With CN(C)CCNc1ccc(NCCN2CCCC(CO)C2)c2c1C(=O)c1c(O)ccc(O)c1C2=O (centres unmarked) [HAQ71, 1-[(2-Dimethylamino)ethylamino]-4-[2-(3-hydroxymethyl-piperidin-1-yl)ethylamino]-5,8-dihydroxy-anthracene-9,10-dione] as the compound, how does the “RF against the cisplatin resistant cells” value (A2780/cp70) read?
**A.** 0.2

**Q.** What about the “doubling time (days) of tumour xenograft” value ([2]; 20 mg/kg i.p.) of the same compound?
**A.** 5.23 ± 0.39 days

**Q.** What about the “tumour doubling time, percent” value ([2]; 20 mg/kg i.p.) of the same compound?
**A.** 177%

**Q.** And the “doubling time (days) of tumour xenograft” value ([3]; 20 mg/kg i.p.)?
**A.** 4.33 ± 0.16 days

**Q.** And the “tumour growth delay (%)” value ([3]; 20 mg/kg i.p.)?
**A.** 172%

**Q.** And the IC50 (A2780 [1]; [5])?
**A.** 8.4 nM

**Q.** Which IC50 (2780AD; Homo sapiens, 2780AD) does the source give for O=C1c2ccccc2C(=O)c2c(NCCN3CCCC3CCl)cccc21 (centres unmarked) [CAQ191M, 1-{[2-(2-chloromethylpyrrolidin-1-yl)ethyl]amino}-anthracene-9,10-dione] here?
**A.** > 1000 nM

**Q.** And the IC50 (A2780/cp70; [6])?
**A.** > 1 µM

**Q.** And the melting point?
**A.** 250 to 253 °C

**Q.** And the IC50 (A2780 [1]; [7])?
**A.** > 1000 nM

**Q.** For O=C1c2c(O)ccc(O)c2C(=O)c2c(NCCN3CCCCC3CCl)ccc(NCCN3CCCCC3CCl)c21 (centres unmarked) [CAQ190M, 1,4-Bis-{[2-(2-chloromethylpiperidin-1-yl)ethyl]amino}-5,8-dihydroxyanthracene-9,10-dione], which IC50 (2780AD; Homo sapiens, 2780AD) is on record?
**A.** > 1000 nM

**Q.** What about the IC50 (A2780/cp70; [6]) of the same compound?
**A.** > 1 µM

**Q.** What about the IC50 (A2780 [1]; [7]) of the same compound?
**A.** 178 nM

**Q.** For O=C1c2c(O)ccc(O)c2C(=O)c2c(NCCN3CCC(O)C3)ccc(NCCN3CCC(O)C3)c21 (centres unmarked) [HAQ115, 1,4-Bis-{[2-(3-hydroxypyrrolidin-1-yl)ethyl]amino}-5,8-dihydroxy-anthracene-9,10-dione], which melting point is on record?
**A.** 197 to 199 °C

**Q.** Which melting point does the source give for O=C1c2c(O)ccc(O)c2C(=O)c2c(NCCN3CCCCC3CO)ccc(NCCN3CCCCC3CO)c21 (centres unmarked) [HAQ105, 1,4-Bis-{[2-(2-hydroxymethylpiperidine-1-yl)ethyl]amino}-5,8-dihydroxy-anthracene-9,10-dione] here?
**A.** 208 to 210 °C
